Reference: patent US20180289678A1, “PHARMACEUTICAL COMPOSITION, PHARMACEUTICAL DOSAGE FORM, PROCESS FOR THEIR PREPARATION, METHODS FOR TREATING AND USES THEREOF” (Boehringer Ingelheim International GmbH, priority 2009, published 2018)
Read-outs that look alike come from different tables or passages of the source.

Assay: Study .1: single dose study in healthy volunteers, pharmacokinetic parameters
Type: in vivo, human
Conditions: Study .1, fasted
Experimental: 5. Pharmacokinetic Parameters
The pharmacokinetic parameters of pharmaceutical compositions and pharmaceutical dosage forms are assessed in healthy volunteer and patient populations. In the studies shown below, the participants fasted on the day of sampling, unless as otherwise stated (see for example study .3). The active substance in the studies below is the compound (I.9), preferably in the crystalline form (I.9X), and the dose of active ingredient is indicated in mg.
For the quantification of plasma concentrations of the active ingredient, 2.7 mL of blood was collected and transferred into an EDTA (ethylendiaminetetraacetic acid)-anticoagulant blood drawing tube. The EDTA-anticoagulated blood samples were centrifuged immediately after collection. Centrifugation lasted for about 10 minutes (at about 2,000×gf to 4,000×gf) at 4-8° C. or within 30 minutes while stored on ice. Concentrations of active substance in EDTA human plasma samples were quantitated using a HPLC/MS/MS method. The assay method comprised a solid phase supported liquid-liquid extraction of human plasma coupled with HPLC/MS/MS determination of the extracted samples. The HPLC/MS/MS assay was validated for the range of 1.11 to 1110 nM in human plasma.
Study .1: Single dose study in a healthy volunteer population of N=72. Healthy volunteers were administered tablets as described in Example 10 (section Examples of formulations).
AUC0-inf:area under the concentration-time curve of the analyte in plasma over the time interval from 0 extrapolated to infinity.
Cmax: maximum concentration of the analyte in plasma.
Tmax: time from dosing to maximum concentration.

In the case of `OC[C@H]1O[C@@H](c2ccc(Cl)c(Cc3ccc(O[C@H]4CCOC4)cc3)c2)[C@H](O)[C@@H](O)[C@@H]1O` [Compound (I.9), 1-chloro-4-(β-D-glucopyranos-1-yl)-2-[4-((S)-tetrahydrofuran-3-yloxy)-benzyl]-benzene], the “AUC0-inf Max” value (2.5 mg single dose) is reported as 0.448 µM·h, the “AUC0-inf Min” value (2.5 mg single dose) is reported as 0.336 µM·h and the “AUC0-inf,norm Max” value (2.5 mg single dose) is reported as 179 nmol·h/L/mg. For the same compound, the “AUC0-inf,norm Median” value (2.5 mg single dose) was 159 nmol·h/L/mg, the “AUC0-inf,norm Min” value (2.5 mg single dose) was 134 nmol·h/L/mg and the “AUC0-inf,norm gMean” value (2.5 mg single dose) was 158 nmol·h/L/mg. For the same compound, the “Cmax,norm Max” value (2.5 mg single dose) was 24 nmol/L/mg, the “Cmax,norm Median” value (2.5 mg single dose) was 22 nmol/L/mg and the “Cmax,norm Min” value (2.5 mg single dose) was 17 nmol/L/mg. For the same compound, the “Cmax,norm gMean” value (2.5 mg single dose) was 21 nmol/L/mg, the “tmax Max” value (2.5 mg single dose) was 2.98 h and the “tmax Min” value (2.5 mg single dose) was 0.983 h. The Cmax (2.5 mg single dose, read-out: Cmax Max) was 60.8 nM, the Cmax (2.5 mg single dose, read-out: Cmax Min) was 42.8 nM and the “AUC0-inf Max” value (10 mg single dose) was 2.18 µM·h. For the same compound, the “AUC0-inf Min” value (10 mg single dose) was 1.17 µM·h, the “AUC0-inf,norm Max” value (10 mg single dose) was 218 nmol·h/L/mg and the “AUC0-inf,norm Median” value (10 mg single dose) was 178 nmol·h/L/mg. The “AUC0-inf,norm Min” value (10 mg single dose) was 117 nmol·h/L/mg, the “AUC0-inf,norm gMean” value (10 mg single dose) was 169 nmol·h/L/mg and the “Cmax,norm Max” value (10 mg single dose) was 27 nmol/L/mg. The “Cmax,norm Median” value (10 mg single dose) was 24 nmol/L/mg, the “Cmax,norm Min” value (10 mg single dose) was 14 nmol/L/mg and the “Cmax,norm gMean” value (10 mg single dose) was 22 nmol/L/mg. For the same compound, the “tmax Max” value (10 mg single dose) was 2.03 h, the “tmax Min” value (10 mg single dose) was 0.983 h and the Cmax (10 mg single dose, read-out: Cmax Max) was 268 nM. The Cmax (10 mg single dose, read-out: Cmax Min) was 143 nM, the “AUC0-inf Max” value (25 mg single dose) was 4.91 µM·h and the “AUC0-inf Min” value (25 mg single dose) was 2.66 µM·h. The “AUC0-inf,norm Max” value (25 mg single dose) was 196 nmol·h/L/mg, the “AUC0-inf,norm Median” value (25 mg single dose) was 159 nmol·h/L/mg and the “AUC0-inf,norm Min” value (25 mg single dose) was 106 nmol·h/L/mg. The “AUC0-inf,norm gMean” value (25 mg single dose) was 150 nmol·h/L/mg, the “Cmax,norm Max” value (25 mg single dose) was 27 nmol/L/mg and the “Cmax,norm Median” value (25 mg single dose) was 21 nmol/L/mg. The “Cmax,norm Min” value (25 mg single dose) was 13 nmol/L/mg, the “Cmax,norm gMean” value (25 mg single dose) was 20 nmol/L/mg and the “tmax Max” value (25 mg single dose) was 3.02 h. For the same compound, the “tmax Min” value (25 mg single dose) was 1.00 h, the Cmax (25 mg single dose, read-out: Cmax Max) was 678 nM and the Cmax (25 mg single dose, read-out: Cmax Min) was 334 nM. For the same compound, the “AUC0-inf Max” value (50 mg single dose) was 11.5 µM·h, the “AUC0-inf Min” value (50 mg single dose) was 7.27 µM·h and the “AUC0-inf,norm Max” value (50 mg single dose) was 230 nmol·h/L/mg. The “AUC0-inf,norm Median” value (50 mg single dose) was 166 nmol·h/L/mg, the “AUC0-inf,norm Min” value (50 mg single dose) was 145 nmol·h/L/mg and the “AUC0-inf,norm gMean” value (50 mg single dose) was 169 nmol·h/L/mg. For the same compound, the “Cmax,norm Max” value (50 mg single dose) was 29 nmol/L/mg, the “Cmax,norm Median” value (50 mg single dose) was 22 nmol/L/mg and the “Cmax,norm Min” value (50 mg single dose) was 14 nmol/L/mg. The “Cmax,norm gMean” value (50 mg single dose) was 22 nmol/L/mg, the “tmax Max” value (50 mg single dose) was 3.00 h and the “tmax Min” value (50 mg single dose) was 0.750 h. The Cmax (50 mg single dose, read-out: Cmax Max) was 1450 nM, the AUC(0-inf) (human, plasma, oral, 2.5 mg, 2.5 mg single dose, read-out: AUC0-inf Mean) was 0.396 µM·h and the AUC(0-inf) (human, plasma, oral, 2.5 mg, 2.5 mg single dose, read-out: AUC0-inf Median) was 0.398 µM·h. For the same compound, the AUC(0-inf) (human, plasma, oral, 2.5 mg, 2.5 mg single dose, read-out: AUC0-inf gMean) was 0.394 µM·h, the Cmax (human, plasma, oral, 2.5 mg, 2.5 mg single dose, read-out: Cmax Mean) was 53.2 nM and the Cmax (human, plasma, oral, 2.5 mg, 2.5 mg single dose, read-out: Cmax Median) was 55 nM. The Cmax (human, plasma, oral, 2.5 mg, 2.5 mg single dose, read-out: Cmax gMean) was 52.9 nM, the Tmax (human, plasma, oral, 2.5 mg, 2.5 mg single dose, read-out: tmax Mean) was 1.83 h and the Tmax (human, plasma, oral, 2.5 mg, 2.5 mg single dose, read-out: tmax Median) was 1.75 h. The Tmax (human, plasma, oral, 2.5 mg, 2.5 mg single dose, read-out: tmax gMean) was 1.72 h, the AUC(0-inf) (human, plasma, oral, 10 mg, 10 mg single dose, read-out: AUC0-inf Mean) was 1.73 µM·h and the AUC(0-inf) (human, plasma, oral, 10 mg, 10 mg single dose, read-out: AUC0-inf Median) was 1.78 µM·h. For the same compound, the AUC(0-inf) (human, plasma, oral, 10 mg, 10 mg single dose, read-out: AUC0-inf gMean) was 1.69 µM·h, the Cmax (human, plasma, oral, 10 mg, 10 mg single dose, read-out: Cmax Mean) was 226 nM and the Cmax (human, plasma, oral, 10 mg, 10 mg single dose, read-out: Cmax Median) was 239 nM. For the same compound, the Cmax (human, plasma, oral, 10 mg, 10 mg single dose, read-out: Cmax gMean) was 221 nM, the Tmax (human, plasma, oral, 10 mg, 10 mg single dose, read-out: tmax Mean) was 1.42 h and the Tmax (human, plasma, oral, 10 mg, 10 mg single dose, read-out: tmax Median) was 1.5 h. It also gave a Tmax (human, plasma, oral, 10 mg, 10 mg single dose, read-out: tmax gMean) of 1.38 h, an AUC(0-inf) (human, plasma, oral, 25 mg, 25 mg single dose, read-out: AUC0-inf Mean) of 3.83 µM·h and an AUC(0-inf) (human, plasma, oral, 25 mg, 25 mg single dose, read-out: AUC0-inf Median) of 3.98 µM·h. For the same compound, the AUC(0-inf) (human, plasma, oral, 25 mg, 25 mg single dose, read-out: AUC0-inf gMean) was 3.75 µM·h, the Cmax (human, plasma, oral, 25 mg, 25 mg single dose, read-out: Cmax Mean) was 505 nM and the Cmax (human, plasma, oral, 25 mg, 25 mg single dose, read-out: Cmax Median) was 520 nM. The Cmax (human, plasma, oral, 25 mg, 25 mg single dose, read-out: Cmax gMean) was 490 nM, the Tmax (human, plasma, oral, 25 mg, 25 mg single dose, read-out: tmax Mean) was 2.19 h and the Tmax (human, plasma, oral, 25 mg, 25 mg single dose, read-out: tmax Median) was 2.05 h. For the same compound, the Tmax (human, plasma, oral, 25 mg, 25 mg single dose, read-out: tmax gMean) was 2.06 h, the AUC(0-inf) (human, plasma, oral, 50 mg, 50 mg single dose, read-out: AUC0-inf Mean) was 8.58 µM·h and the AUC(0-inf) (human, plasma, oral, 50 mg, 50 mg single dose, read-out: AUC0-inf Median) was 8.29 µM·h. For the same compound, the AUC(0-inf) (human, plasma, oral, 50 mg, 50 mg single dose, read-out: AUC0-inf gMean) was 8.46 µM·h, the Cmax (human, plasma, oral, 50 mg, 50 mg single dose, read-out: Cmax Mean) was 1110 nM and the Cmax (human, plasma, oral, 50 mg, 50 mg single dose, read-out: Cmax Median) was 1100 nM. The Cmax (human, plasma, oral, 50 mg, 50 mg single dose, read-out: Cmax gMean) was 1080 nM, the Tmax (human, plasma, oral, 50 mg, 50 mg single dose, read-out: tmax Mean) was 1.75 h and the Tmax (human, plasma, oral, 50 mg, 50 mg single dose, read-out: tmax Median) was 1.5 h. The Tmax (human, plasma, oral, 50 mg, 50 mg single dose, read-out: tmax gMean) was 1.59 h.
